Experiment: gradient 5% acetonitrile 3 min, to 50% in 2 min, to 85% in 15 min, held 3 min, 100 µL/min
Details: column: Zorbax Extend-C18 2.1 x 50 mm; eluents: water / acetonitrile, 0.1% formic acid
Summary of the method: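 Retention times come from adduct peaks that were picked computationally and then checked by hand. The standards, pure and pooled in mixtures of ~100 molecules, were run on a Zorbax Extend-C18 column (2.1 × 50 mm, 1.8 μm) at 100 μL/min with water and acetonitrile, each with 0.1% formic acid. Detection was by quadrupole time-of-flight mass spectrometry in positive and negative ionization mode, with a dead volume of 40 μL and a dwell volume of 900 μL.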

Structure (SMILES) | RP-LC retention time
Cc1ccc2c(c1)C1CC(C)(O2)N(c2ccc(C(=O)O)cc2)C(=O)N1 (stereo unspecified) | 709 s
Cc1ccc(CNC(=O)c2nnc(-c3oc4c(C)cccc4c3C)o2)o1 | 1140 s
O=C(NCCc1c[nH]c2ccc(Cl)cc12)c1cc(-c2cccnc2)nc2ccccc12 | 805 s
Cc1ccc(NC(=O)c2cn3c(n2)CCCC3)cc1C | 604 s
CCN1CCN(CCNC(=O)C2CCCN(c3nnc(C)c4c(C)n(-c5ccccc5)nc34)C2)CC1 (stereo unspecified) | 570 s
Cc1cc(-c2nnc(C3CC3)o2)c(C)n1CC(=O)NCc1ccccc1Cl | 769 s
COc1ccc(-c2ccnc3nc(CC(C)C)nn23)cc1OC | 824 s
Cc1ccc(F)cc1NS(=O)(=O)c1cc(-c2[nH]ncc2C(=O)N2CCCCC2)oc1C | 791 s
COCCn1nc(N2CCCC(NS(=O)(=O)c3c(C)c(C)cc(C)c3C)C2)ccc1=O (stereo unspecified) | 875 s
CCNc1ncnc2sc3c(c12)CCN(S(=O)(=O)c1ccccc1)C3 | 805 s
CCc1ccc(N2C(=O)C3N=NN(Cc4nc(-c5cccc(C(F)(F)F)c5)no4)C3C2=O)cc1 (stereo unspecified) | 1130 s
O=C(NCc1cccc(C(F)(F)F)c1)C1CCN(c2nnc(-c3ccccc3)o2)CC1 | 896 s
COc1ccc(-c2nnc(-c3ccc(-n4ccnc4)nc3)o2)cc1F | 642 s
COc1ccc(-c2cc3c(=O)n(Cc4nc(-c5ccccc5)oc4C)ccn3n2)cc1 | 936 s
O=C(NCc1ccc(Br)cc1)C1CCCN(c2nccnc2Oc2ccccc2)C1 (stereo unspecified) | 1050 s
CCCNC(=O)C1CCN(S(=O)(=O)c2cc(-c3noc(CC)n3)cs2)CC1 | 830 s
CCCn1c(=O)sc2cc(S(=O)(=O)N3CCC(C(=O)NCc4cccnc4)CC3)ccc21 | 643 s
COc1ccc(N2CCCS2(=O)=O)cc1NC(=O)c1ccc(Br)o1 | 767 s
Cc1cccnc1NC(=O)c1c[nH]c2c(C(F)(F)F)cccc2c1=O | 573 s
C1CCC(NC2=NCCO2)CC1 | 615 s
CN(C)c1ccc(C(=O)Nc2cc(-c3ccsc3)no2)cc1 | 961 s
CC(CCc1ccccc1)NC(=O)c1ccccc1NC(=O)C1=CSCCO1 (stereo unspecified) | 1080 s
Cc1cn(C)c(CC(=O)N2CCc3ccccc32)c1C(=O)O | 742 s

Structure (SMILES) | RP-LC retention time
Cc1oc(-c2cccs2)nc1CSc1ncnc2nc[nH]c12 | 714 s
Cc1cc(C(=O)NC(C)CCc2ccccc2)n(-c2ccccc2)n1 (stereo unspecified) | 942 s
Cc1ccc(C2=NC3(CCN(C(=O)CSc4ccccc4)CC3)ON2)cc1 | 894 s
CC(=O)CCCCn1cnc2c1c(=O)n(C)c(=O)n2C | 672 s
O=C(NC1CCN(c2nnc3ccc(Cl)cn23)CC1)c1cccnc1 | 567 s
CCn1c(C(=O)NCCN2CCCCC2C)c(N2CCCC2=O)c2cc(OC)ccc21 (stereo unspecified) | 637 s
CCCn1c(=O)c(C)nc2cc(-c3noc(C4CC(=O)N(c5cccc(Cl)c5)C4)n3)ccc21 (stereo unspecified) | 1050 s
Cc1cccc(CNc2cc(-n3cccn3)ncn2)c1 | 648 s
O=C(c1ccccc1)N1CCC(n2c(-c3ccco3)nc3cccnc32)C1 (stereo unspecified) | 716 s
CC(C)(Cc1ccc2ccccc2c1)NC[C@@H](O)COc1cccc(Cl)c1C#N | 857 s
CCc1ccc(-c2cc(C(=O)N3CCN(Cc4noc5ccccc45)CC3)[nH]n2)cc1 | 772 s
O=C(Nc1nc2ccccc2n1CCN1CCOCC1)c1ccc(Cl)cc1 | 633 s
O=C(NCCC1CCN(C(=O)Nc2ccccc2)CC1)c1ccsc1 | 749 s
Cn1c(=O)oc2cc(-c3noc(-c4ccccc4Br)n3)ccc21 | 1070 s
CCOC(=O)CC1(NC(=O)N2CCC(c3nc4ccncc4n3C)C2)CCCCC1 (stereo unspecified) | 553 s
O=C(NCCCN1CCCCC1)c1ccc2ccnc(N3CCN(c4ccc(Cl)cc4)CC3)c2c1 | 645 s
CC1Sc2ccc(S(=O)(=O)N3CCC(C(=O)N4CCc5ccccc5C4)CC3)cc2NC1=O (stereo unspecified) | 882 s
Cc1cccc(N2CCN(C(=O)c3[nH]c(C)c(S(=O)(=O)N4CCOCC4)c3C)CC2C)c1 (stereo unspecified) | 752 s
O=C(NC1CCCCC1)c1ccc2c(c1)N(C(=O)c1ccc(F)cc1)CC2 | 944 s
CNC(=O)C1CCCN(c2nc3ncn(CC(=O)Nc4cc(F)ccc4F)c(=O)c3s2)C1 (stereo unspecified) | 641 s
CC1CCCCN1CCNC(=O)c1cc2c(s1)N(C)CCCC2 (stereo unspecified) | 672 s
O=C(c1ccncc1)N1CCCn2nc(-c3ccc(Cl)cc3)cc2C1 | 719 s
Cc1cccc(N2CCN(CC(O)COc3ccccc3Cl)CC2)c1 (stereo unspecified) | 828 s

Structure (SMILES) | RP-LC retention time
Cc1cc(C)c2c(N3CCOCC3)nc(C(=O)NCc3cccc(F)c3)nc2n1 | 639 s
Cc1cc(C)cc(C(=O)NC2CCN(c3cc(-c4ccccc4)[nH]n3)C2)c1 (stereo unspecified) | 770 s
CCN1CCN(S(=O)(=O)c2ccc(-c3cc(C(F)(F)F)on3)o2)CC1 | 691 s
O=C(CCCN1C(=O)CSc2ncccc21)N1CCN(c2ccccn2)CC1 | 559 s
CC(=O)NCC(=O)N1CCCn2ccnc2C1C1CCCC1 (stereo unspecified) | 625 s
Cc1ccc(-c2nnc(-c3nn(C)c4c3CN(S(=O)(=O)c3ccc(CC(C)C)cc3)CC4)o2)cc1 | 1230 s
O=C(O)CN1C(=O)CN=C(c2ccccn2)c2cc(Cl)ccc21 | 696 s
O=C(c1cccc(Br)c1)N1CCN(c2cc(-c3ccc(Cl)cc3)[nH]n2)CC1 | 958 s
Cc1ccc(C(=O)N2C[C@@H]3C[C@H](NC(=O)c4cccnc4)[C@H]2C3)cc1F | 609 s
O=C(NC1CCN(Cc2ccccc2)CC1)C1CCCN(c2ncnc3c2nc2n3CCCCC2)C1 (stereo unspecified) | 1050 s
Cc1cccc2c1ncn1c(=O)n(CC(=O)NCc3ccccc3Cl)nc21 | 627 s
O=C(NC1CCCCCC1)C1CCN(c2ccncc2)CC1 | 610 s
CCn1c(=O)c2ccnn2c2ccc(C(=O)O)cc21 | 662 s
CCC(C)Nc1nc(-c2ccc(Cl)cc2)nc2ccccc12 (stereo unspecified) | 822 s
Cc1cccc(N2CCN(C(=O)c3cn4ccccc4n3)CC2)c1C | 776 s
CCc1noc([C@@H]2CC(F)(F)CN2C(=O)c2coc(C)n2)n1 | 732 s
COc1ccc(C)cc1NC(=O)c1cc(C)n2nccc2n1 | 1050 s
CCN(CC)C(=O)N1CCC(c2noc(-c3ccccc3)n2)C1 (stereo unspecified) | 892 s
Cc1ccc(-c2ncc(C(=O)NCCC3=CCCCC3)c(-c3ccncc3)n2)cc1 | 1050 s
CCOc1ccccc1NC(=O)C1CCN(C(=O)C2Sc3ccccc3NC2=O)CC1 (stereo unspecified) | 814 s
N#Cc1ccc(C(=O)NC(c2ccccc2)c2nnc(N3CCCCC3)o2)cc1 (stereo unspecified) | 740 s
O=C1NCCOc2ccc(NS(=O)(=O)c3ccc(F)c(Cl)c3)cc21 | 685 s
Cc1sc(C)c(S(=O)(=O)NCc2cccs2)c1-c1cc(C(F)(F)F)on1 | 1100 s

Structure (SMILES) | RP-LC retention time
CC1CCN(S(=O)(=O)c2cccnc2Nc2ccc(Cl)cc2)CC1 | 1370 s
CCC(C)NC(=O)N(C)CCc1noc(COc2ccc(Cl)cc2)n1 (stereo unspecified) | 869 s
Cc1nc(N2CCN(c3ccccc3F)CC2)nc2c1C(=O)CC(c1ccccc1O)C2 (stereo unspecified) | 1190 s
CN1C(=O)Cc2ccccc2C1C(=O)NCc1ccccc1F (stereo unspecified) | 713 s
CN(CCc1noc(-c2ccccc2)n1)C(=O)Nc1ccccc1Br | 956 s
CC(C)CCNC(=O)C1CCN(Cc2cc3ccccc3n2Cc2cccc(Cl)c2)CC1 | 845 s
CCOc1cc(C(=O)N2CCCC2c2nc(-c3ccc(OC)cc3)no2)cc(OCC)c1OCC (stereo unspecified) | 1080 s
CC1CCCN(C(=O)c2cn(-c3cc(N4CCOCC4)ncn3)cn2)C1 (stereo unspecified) | 709 s
COc1ccccc1C(=O)NCCc1c[nH]c2ccc(Cl)cc12 | 640 s
Cc1ccc(CNc2c(-c3cccc(Br)c3)nc3ncccn23)cc1 | 927 s
Cn1ncc2c3ccccc3n(CCCC(=O)N3CCc4ccccc4C3)c2c1=O | 931 s
COC(=O)c1ccc(Nc2c(C(=O)N3CCCC3)cnc3nc(C)ccc23)cc1 | 598 s
Cc1c(Cl)cccc1NC(=O)N1CCN(C2=CC3=NCC(C)N3C=N2)CC1 (stereo unspecified) | 632 s
O=C(CCc1c[nH]c2ccccc12)N1CCN2CCS(=O)(=O)N(C3CC3)C(=O)C2C1 (stereo unspecified) | 766 s
CC(C)n1nnc2cc(C(=O)N(C)CC(=O)Nc3ccc(Br)cc3F)ccc21 | 803 s
CCOc1ccc(CC(=O)N2CCCC2c2cc(C)on2)cc1 (stereo unspecified) | 822 s
CCOC(=O)C1CCC(CNC(=O)Nc2cccn3cnnc23)CC1 (stereo unspecified) | 654 s
Cc1cc(=O)n(CC(=O)Nc2ccc(F)cc2F)c(N2CCOCC2)n1 | 651 s
COC(=O)c1ccccc1NC(=O)CSc1nccc(N2CCN(c3cccc(OC)c3)CC2)n1 | 695 s
O=C(Nc1ccc(N2CCN(c3ccccc3)C2=O)nc1)c1ccncc1 | 689 s
COCC(=O)N1CCC2(CCC2O)CC1 (stereo unspecified) | 577 s
Cn1ncn2cc(S(=O)(=O)NCc3ccc(Cl)cc3)cc2c1=O | 817 s

From the METLIN SMRT retention time set (Domingo-Almenara et al. 2019)
